For data set [1] the following is noted: primate skin types in contact with pure ivermectin; cited from earlier work.
A further data set has as its system wireworm. The experiment in a line: efficacy trial against endo-parasite wireworm. Conditions: ~200 kg cow, slaughtered 3 weeks after treatment. In kind it is in vivo, cattle. The protocol: The purpose of the trial was to establish the efficacy of biologically active agent when administered by the system according to the present invention in treating cattle for the endo-parasite wireworm.
Two cattle of similar age and weight (˜200 kg) were infected with wireworm parasite to the level of 6000 to 8000 worm eggs per gram of faeces. One cow was treated with the biologically active agent in its ‘pour on’ form and the other cattle were treated with two dosage projectiles fired from a distance of approx 20 meters with a CO2 propelled launcher with an impact velocity of about 130 ft/sec.
Each projectile was spherical and made from soft gelatine compound with the shell being of about 2 mm thick. The size was sufficient to hold about 10 ml of the liquid biologically active agent comprising the following constituent:
10 mg of abamectin (at a dosage concentration of 1 mg per 10 kg of body mass)
5% solution of the solvent/transdermal carrier propylene glycol (the proprietary brand Icinol)
a standard turquoise, inert pharmaceutical colorant known as FC & D blue
The impact area of the ruptured projectiles was the hind quarter and lower neck/shoulder of the cattle.
The cattle were slaughtered 3 weeks after treatment and the stomach contents/linings examined under laboratory conditions.

The nature of data set [2]: drug trials: absorption of abamectin from projectile vs Pour On. It counts as in vivo. Particulars: applied in a projectile at 5 g/l. The source says: The system has been adapted for use in Africa for treating antelope species. Each projectile was designed to treat a 100 kg animal.

On to ivermectin [pure ivermectin], for which the “active agent absorbed into the bloodstream” value in data set [1] was “less than 1%”.
With abamectin, in the data set with wireworm ('pour on' form), the free of parasite result was “approx 96%”. In the data set on wireworm (two dosage projectiles), the “free of internal parasite infection” value is listed as 100%. The “absorption of the active compared with traditional Pour On application” value in data set [2] (antelope species) and in data set [2] (cattle) was “at least as good as” each time.

These data come from patent US8802135B2, “Delivery system for remote treatment of an animal” (SmartVet Pty Ltd., priority 2006, dated 2014).
